Series [1] is described as follows: Selectivity index, ratio of CC50 for human MT4 cells to EC50 for wild type HIV1 3B. Type of series: toxicity, cell-based. Particulars: read-out: Ratio CC50/EC50.
The test system of series [2] is Human immunodeficiency virus 1. The series is described as follows: Antiviral activity against HIV1 bearing reverse transcriptase K103N and Y181C double mutation infected in human MT4 cells assessed as inhibition of virus-induced cytopathic effect after 4 days by MTT assay. The format is functional, organism-based. Particulars: Human immunodeficiency virus 1, MT4, 96 h. (In general: Protection from cytopathic effect is a common read-out in antiviral testing.)

For series [3], the system named is Human immunodeficiency virus 1. Put plainly: Antiviral activity against wild type HIV1 3B infected in human MT4 cells assessed as inhibition of virus-induced cytopathic effect after 4 days by MTT assay. The format is functional, organism-based. The settings on record: Human immunodeficiency virus 1, 3B, MT4, 96 h.
Series [4] can be described thus: Cytotoxicity against human MT4 cells after 4 days by MTT assay. The format is cell-based.
For series [5], the target named is Human immunodeficiency virus type 1 reverse transcriptase (Human immunodeficiency virus 1, UniProt Q72547). The series is described as follows: Inhibition of HIV1 reverse transcriptase.

Molecules are shown by their SMILES. pEC50, pIC50: −log10 of the molar value.

On to `Cc1cc(Oc2ccc3cc(C#N)ccc3c2Br)nc(Nc2ccc(C#N)cc2)n1`, for which the selectivity ratio in series [1] was > 40100. Moreover, the negative logarithm of the EC50 (pEC50) – broadly, −log10 of the EC50, conventionally taken in molar units – in series [2] is 6.66; in series [3], 8.15. Further, the 50% cytotoxic concentration (CC50) (as a rule, the concentration that lowers cell viability or growth by half) at 96 h in series [4] is > 274000 nM.

Consider `Cc1cc(Oc2ccc3cc(C#N)ccc3c2)nc(Nc2ccc(C#N)cc2)n1`, for which the selectivity ratio in series [1] was > 96500. For the same molecule, the pEC50 in series [2] was 3.48; in series [3], 8.52. The CC50 at 96 h in series [4] is > 332000 nM.

For the molecule `N#Cc1ccc(Nc2nccc(Oc3ccc4cc(C#N)ccc4c3)n2)cc1`, in series [1], the selectivity ratio amounted to 20500. Moreover, the pEC50 in series [2] is 5.20; in series [3], 8.52. For the same molecule, the half-maximal cytotoxic concentration (CC50) at 96 h in series [4] is > 68800 nM. In series [5], the negative logarithm of the IC50 (pIC50) – broadly, −log10 of the IC50, conventionally taken in molar units – is 5.06.

For the molecule `N#Cc1ccc(Nc2nccc(Oc3ccc4cc(C#N)ccc4c3Br)n2)cc1`, the selectivity ratio in series [1] worked out at 181000. Besides, the pEC50 is 6.62 in series [2] and 8.70 in series [3]. The same molecule gave a 50% cytotoxic concentration (CC50) at 96 h in series [4] of 283000 nM. In addition, the negative logarithm of the IC50 (pIC50) in series [5] was 5.52.

Take `Cc1cnc(Nc2ccc(C#N)cc2)nc1Oc1ccc2cc(C#N)ccc2c1`: the selectivity ratio in series [1] is > 44900. Further, the pEC50 in series [2] was 3.48; in series [3] it was 8.15. Moreover, the CC50 at 96 h in series [4] was > 332000 nM.

Take `N#Cc1ccc(Nc2nccc(Oc3cc4ccc(C#N)cc4cc3Br)n2)cc1`: in series [1], the selectivity ratio came out at 50400. The pEC50 in series [2] is < 4.25; in series [3], 9.00. For the same molecule, the CC50 at 96 h in series [4] was > 56500 nM. Also, the pIC50 in series [5] was 5.95.

Take `COc1c(Oc2ccnc(Nc3ccc(C#N)cc3)n2)ccc2cc(C#N)ccc12`: in series [1], the selectivity ratio is ≥ 134000. The values for the pEC50 in series [2] and in series [3] were 6.42 and 8.70, respectively. For the same molecule, the CC50 at 96 h in series [4] was > 211000 nM. The molecule further had a negative logarithm of the IC50 (pIC50) in series [5] of 5.64.

With `COc1cc2cc(C#N)ccc2cc1Oc1ccnc(Nc2ccc(C#N)cc2)n1`, the selectivity ratio in series [1] is > 158000. Besides, the pEC50 in series [2] was 3.50; in series [3], 8.70. In addition, the half-maximal cytotoxic concentration (CC50) at 96 h in series [4] was > 318000 nM. The pIC50 in series [5] was 5.88.

With `COc1cc2cc(C#N)ccc2c(OC)c1Oc1ccnc(Nc2ccc(C#N)cc2)n1`, in series [1], the selectivity ratio is ≥ 25000. In addition, the pEC50 in series [2] was 6.80; in series [3], 8.30. The CC50 at 96 h in series [4] is > 118000 nM. For the same molecule, in series [5], the pIC50 was 7.02.

With `N#Cc1ccc(Nc2nccc(Oc3ccc4cc(C#N)ccc4c3Cl)n2)cc1`, the selectivity ratio in series [1] worked out at 48000. Besides, the negative-log EC50 (pEC50) in series [2] is 6.15; in series [3] it was 8.22. In series [4], this molecule yielded a 50% cytotoxic concentration (CC50) at 96 h of 269000 nM.

As for `COc1cc2cc(C#N)ccc2c(Cl)c1Oc1ccnc(Nc2ccc(C#N)cc2)n1`, in series [1], the selectivity ratio was ≥ 25700. The results for the negative logarithm of the EC50 (pEC50) in series [2] and in series [3] were 6.82 and 8.15, respectively. In series [4], the half-maximal cytotoxic concentration (CC50) at 96 h is > 191000 nM.

On to `Cc1cnc(Nc2ccc(C#N)cc2)nc1Oc1ccc2cc(C#N)ccc2c1Br`, for which the selectivity ratio in series [1] was > 23800. Besides, the negative logarithm of the EC50 (pEC50) is 6.08 in series [2] and 7.92 in series [3]. The CC50 at 96 h in series [4] was > 274000 nM.

Take `CC(C)Nc1cccnc1N1CCN(C(=O)c2cc3cc(NS(C)(=O)=O)ccc3[nH]2)CC1` [DELAVIRDINE]: the negative logarithm of the EC50 (pEC50) in series [2] was < 5.44. Further, the half-maximal cytotoxic concentration (CC50) at 96 h in series [4] was > 3620 nM.

Consider `O=C1Nc2ccc(Cl)cc2[C@@](C#CC2CC2)(C(F)(F)F)O1` [EFAVIRENZ], for which, in series [2], the negative logarithm of the EC50 (pEC50) was 6.25. Besides, the CC50 at 96 h in series [4] is > 63400 nM.

As for `Cc1ccnc2c1NC(=O)c1cccnc1N2C1CC1` [NEVIRAPINE], the values for the negative logarithm of the EC50 (pEC50) in series [2] and in series [3] were < 4.82 and 7.12, respectively. The CC50 at 96 h in series [4] is > 15000 nM.

The values are drawn from ChEMBL document CHEMBL1177663, “Synthesis and anti-HIV activity of 2-naphthyl substituted DAPY analogues as non-nucleoside reverse transcriptase inhibitors” (Bioorg Med Chem, 2010).
